From BindingDB's records for patent US20230312550 (Astrazeneca, 2023)

Biological target: T1, Prolyl endopeptidase FAP (Homo sapiens, UniProt Q12884)
T1 sequence (Q12884 whole entry): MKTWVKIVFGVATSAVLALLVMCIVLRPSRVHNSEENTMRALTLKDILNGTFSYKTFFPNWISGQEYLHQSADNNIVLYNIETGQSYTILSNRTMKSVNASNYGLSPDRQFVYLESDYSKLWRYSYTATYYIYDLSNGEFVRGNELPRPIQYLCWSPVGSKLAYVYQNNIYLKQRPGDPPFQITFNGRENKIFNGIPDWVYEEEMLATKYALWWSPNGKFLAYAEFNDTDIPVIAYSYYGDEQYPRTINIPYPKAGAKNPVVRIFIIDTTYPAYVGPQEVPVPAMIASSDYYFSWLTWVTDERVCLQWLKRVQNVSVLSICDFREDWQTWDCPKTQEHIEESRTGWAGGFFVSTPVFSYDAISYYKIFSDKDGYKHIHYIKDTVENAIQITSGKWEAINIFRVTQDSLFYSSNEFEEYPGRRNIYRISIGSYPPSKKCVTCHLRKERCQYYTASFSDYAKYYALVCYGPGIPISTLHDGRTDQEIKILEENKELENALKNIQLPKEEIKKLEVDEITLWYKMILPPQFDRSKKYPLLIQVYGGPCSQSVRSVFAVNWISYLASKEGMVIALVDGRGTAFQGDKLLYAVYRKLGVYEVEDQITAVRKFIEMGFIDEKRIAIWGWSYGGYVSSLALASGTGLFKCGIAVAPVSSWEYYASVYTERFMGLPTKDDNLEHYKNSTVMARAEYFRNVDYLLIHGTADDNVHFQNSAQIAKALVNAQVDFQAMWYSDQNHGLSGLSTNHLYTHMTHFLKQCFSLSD
Experiment: hFAP Binding Assay
Settings: for kon: read-out: kon (M-1-s-1)

koff [s⁻¹] | kon [M⁻¹ s⁻¹] | SMILES
0.00042 | 3e+06 | CC1(C)Cc2c(-c3ccc4nccc(C(=O)NCC(=O)N5CSC[C@H]5C#N)c4c3)cnn2C1 [US20230312550, Example 123]
6.3e-05 | 1.2e+06 | CC1(O)CN(c2ccc3nccc(C(=O)NCC(=O)N4CSC[C@H]4C#N)c3c2)C1 [US20230312550, Example 165]
2.5e-05 | 740000 | N#C[C@@H]1CSCN1C(=O)CNC(=O)c1ccnc2ccc(N3CCOCC3)c(Cl)c12 [US20230312550, Example 101]
0.00012 | 740000 | C[C@@H]1CN(c2ccc3nccc(C(=O)NCC(=O)N4CSC[C@H]4C#N)c3c2)C[C@H](C)[C@]1(C)O [US20230312550, Example 193]
8e-05 | 1.8e+06 | COC[C@@H]1CN(c2ccc3nccc(C(=O)NCC(=O)N4CSC[C@H]4C#N)c3c2)CCO1 [US20230312550, Example 93]
5e-05 | 2e+06 | N#C[C@@H]1CSCN1C(=O)CNC(=O)c1ccnc2ccc(N3CC(OC(F)F)C3)cc12 [US20230312550, Example 136]
6.8e-05 | 890000 | C[C@@H]1COC[C@@H](C)N1c1ccc2nccc(C(=O)NCC(=O)N3CSC[C@H]3C#N)c2c1 [US20230312550, Example 105]
18 |  | N#C[C@@H]1CSCN1C(=O)CNC(=O)c1ccnc2ccc(N3CCOc4ccccc43)cc12 [US20230312550, Example 6]
6.4e-05 | 680000 | CO[C@H]1CCCN(c2ccc3nccc(C(=O)NCC(=O)N4CSC[C@H]4C#N)c3c2)C1 [US20230312550, Example 41]
0.0002 | 3e+06 | N#C[C@@H]1CSCN1C(=O)CNC(=O)c1ccnc2ccc(N3CC(F)C3)cc12 [US20230312550, Example 21]
7.6e-05 | 690000 | COC[C@@H]1[C@@H](C)OCCN1c1ccc2nccc(C(=O)NCC(=O)N3CSC[C@H]3C#N)c2c1 [US20230312550, Example 97]
1.4e-05 | 1.3e+06 | CC(C)C1(O)CCN(c2ccc3nccc(C(=O)NCC(=O)N4CSC[C@H]4C#N)c3c2)CC1 [US20230312550, Example 192]
2.3e-05 | 1.7e+06 | CC1(C(F)F)CN(c2ccc3nccc(C(=O)NCC(=O)N4CSC[C@H]4C#N)c3c2)C1 [US20230312550, Example 135]
0.00023 | 2.5e+06 | N#C[C@@H]1CSCN1C(=O)CNC(=O)c1ccnc2ccc(N3CCC[C@H]3C3CC3)cc12 [US20230312550, Example 200]
0.00011 | 5.6e+06 | N#C[C@@H]1CSCN1C(=O)CNC(=O)c1ccnc2ccc(N3CC[C@H](F)C3)cc12 [US20230312550, Example 51]
0.00011 | 1.1e+06 | N#C[C@@H]1CSCN1C(=O)CNC(=O)c1ccnc2ccc(N3CC(C(F)F)C3)cc12 [US20230312550, Example 28]
1.9e-05 | 3.2e+06 | CC(C)OC1CCN(c2ccc3nccc(C(=O)NCC(=O)N4CSC[C@H]4C#N)c3c2)CC1 [US20230312550, Example 43]
0.00024 | 9.7e+06 | N#C[C@@H]1CSCN1C(=O)CNC(=O)c1ccnc2ccc(N3CC(F)(C4CC4)C3)cc12 [US20230312550, Example 31]
5.7e-05 | 1.6e+06 | N#C[C@@H]1CSCN1C(=O)CNC(=O)c1ccnc2ccc(N3CC(F)(C(F)(F)F)C3)cc12 [US20230312550, Example 143]
5.6e-05 | 370000 | Cc1cc2nccc(C(=O)NCC(=O)N3CSC[C@H]3C#N)c2cc1N1CCOCC1 [US20230312550, Example 10]
0.00022 | 5.2e+06 | CO[C@@H]1CN(c2ccc3nccc(C(=O)NCC(=O)N4CSC[C@H]4C#N)c3c2)[C@H]1C [US20230312550, Example 30]
5.3e-05 | 4.6e+06 | CO[C@H]1CCN(c2ccc3nccc(C(=O)NCC(=O)N4CSC[C@H]4C#N)c3c2)C1 [US20230312550, Example 207]
0.00017 | 3.1e+06 | COc1ccc(-c2ccc3nccc(C(=O)NCC(=O)N4CSC[C@H]4C#N)c3c2)cn1 [US20230312550, Example 178]
7.8e-05 | 1.4e+06 | N#C[C@@H]1CSCN1C(=O)CNC(=O)c1ccnc2ccc(N3CC4(CCCC4(F)F)C3)cc12 [US20230312550, Example 141]

koff [s⁻¹] | kon [M⁻¹ s⁻¹] | SMILES
1.6e-05 | 1.1e+06 | Cc1ccn(-c2ccc3nccc(C(=O)NCC(=O)N4CSC[C@H]4C#N)c3c2)c1 [US20230312550, Example 121]
0.0002 | 5.9e+06 | C[C@@H]1CCCN1c1ccc2nccc(C(=O)NCC(=O)N3CSC[C@H]3C#N)c2c1 [US20230312550, Example 211]
6.4e-05 | 1.3e+06 | N#C[C@@H]1CSCN1C(=O)CNC(=O)c1ccnc2ccc(N3CCCCC3=O)cc12 [US20230312550, Example 14]
6.8e-05 | 3e+06 | N#C[C@@H]1CSCN1C(=O)CNC(=O)c1ccnc2ccc(N3C[C@H](O)C(F)(F)C3)cc12 [US20230312550, Example 224]
5.8e-05 | 100000 | Cc1ccc(-c2ccc3nccc(C(=O)NCC(=O)N4CSC[C@H]4C#N)c3c2)cn1 [US20230312550, Example 177]
7.3e-05 | 1.2e+06 | CC1(CC(F)F)CN(c2ccc3nccc(C(=O)NCC(=O)N4CSC[C@H]4C#N)c3c2)C1 [US20230312550, Example 133]
3.3e-05 | 1.5e+06 | CCC1(OC)CCN(c2ccc3nccc(C(=O)NCC(=O)N4CSC[C@H]4C#N)c3c2)CC1 [US20230312550, Example 191]
2.2e-05 | 2.6e+06 | CC1(CS(C)(=O)=O)CN(c2ccc3nccc(C(=O)NCC(=O)N4CSC[C@H]4C#N)c3c2)C1 [US20230312550, Example 188]
5e-05 | 680000 | N#C[C@@H]1CSCN1C(=O)CNC(=O)c1ccnc2ccc(N3CC4CCCC4C3)cc12 (stereo partly specified) [US20230312550, Example 53]
0.00016 | 2.4e+06 | N#C[C@@H]1CSCN1C(=O)CNC(=O)c1ccnc2ccc(N3CCO[C@@H](C(F)(F)F)C3)cc12 [US20230312550, Example 73]
9e-05 | 3e+06 | N#C[C@@H]1CSCN1C(=O)CNC(=O)c1ccnc2ccc(N3CCCC(F)(F)C3)cc12 [US20230312550, Example 36]
9.8e-05 | 9.5e+06 | CCC1(C)CN(c2ccc3nccc(C(=O)NCC(=O)N4CSC[C@H]4C#N)c3c2)C1 [US20230312550, Example 137]
7.2e-05 | 1.7e+06 | C[C@H]1CC(F)(F)CCN1c1ccc2nccc(C(=O)NCC(=O)N3CSC[C@H]3C#N)c2c1 [US20230312550, Example 44]
5.5e-05 | 1.8e+06 | N#C[C@@H]1CSCN1C(=O)CNC(=O)c1ccnc2ccc(N3CC(CCC(F)(F)F)C3)cc12 [US20230312550, Example 142]
0.00017 | 1.8e+06 | Cc1nc(C)c(-c2ccc3nccc(C(=O)NCC(=O)N4CSC[C@H]4C#N)c3c2)o1 [US20230312550, Example 215]
0.0002 | 2.1e+06 | N#C[C@@H]1CSCN1C(=O)CNC(=O)c1ccnc2ccc(N3CCOC4(CCOCC4)C3)cc12 [US20230312550, Example 99]
7.5e-05 | 740000 | C[C@@H]1CN(c2ccc3nccc(C(=O)NCC(=O)N4CSC[C@H]4C#N)c3c2)C[C@H](C)[C@@H]1O [US20230312550, Example 7]
0.0001 | 3e+06 | C[C@H]1COC[C@H](C)N1c1ccc2nccc(C(=O)NCC(=O)N3CSC[C@H]3C#N)c2c1 [US20230312550, Example 103]
5.6e-05 | 2.9e+06 | COCC[C@@H]1COCCN1c1ccc2nccc(C(=O)NCC(=O)N3CSC[C@H]3C#N)c2c1 [US20230312550, Example 95]
0.00021 | 1.8e+06 | N#C[C@@H]1CSCN1C(=O)CNC(=O)c1ccnc2ccc(-c3cccnc3)cc12 [US20230312550, Example 126]
6.3e-05 | 440000 | C[C@H]1CCCN(c2ccc3nccc(C(=O)NCC(=O)N4CSC[C@H]4C#N)c3c2)C1=O [US20230312550, Example 203]
0.00012 | 1.6e+07 | N#C[C@@H]1CSCN1C(=O)CNC(=O)c1ccnc2ccc(N3CC4CCC(C3)O4)cc12 [US20230312550, Example 79]
0.00018 | 5.4e+06 | N#C[C@@H]1CSCN1C(=O)CNC(=O)c1ccnc2ccc(N3CCCC[C@H]3CF)cc12 [US20230312550, Example 45]
0.00047 | 6.7e+06 | C[C@H]1CCCN1c1ccc2nccc(C(=O)NCC(=O)N3CSC[C@H]3C#N)c2c1 [US20230312550, Example 65]

SMILES | koff [s⁻¹] | kon [M⁻¹ s⁻¹]
N#C[C@@H]1CSCN1C(=O)CNC(=O)c1ccnc2ccc(N3C4CCCC3COC4)cc12 [US20230312550, Example 86] | 5.8e-05 | 730000
N#C[C@@H]1CSCN1C(=O)CNC(=O)c1ccnc2ccc(N3C4CCC3CC4)cc12 [US20230312550, Example 209] | 4.2e-05 | 3.2e+06
N#C[C@@H]1CSCN1C(=O)CNC(=O)c1ccnc2ccc(N3C4CCC3COC4)cc12 [US20230312550, Example 98] | 1.5e-05 | 1.6e+06
